Source: US9005575B2, “Arg-Gly-Asp-conjugated alpha-melanocyte stimulating hormone hybrid peptide for use in diagnosing and treating melanoma, including metastatic melanoma and methods related to same” (STC.UNM, priority 2009, dated 2015)
Read-outs that look alike come from different tables or passages of the source. Positions of bridges follow the written chain, without caps; N, C: chain ends. Non-standard residues stand in square brackets, D forms with d. Residues, ends and D or L forms follow the SMILES beside them.

Experiment: Biodistribution in B16/F1 melanoma-bearing C57 mice
Type: in vivo
Settings: female, C57, mouse, iv, total radioactivity; for tissue uptake dose at 0.5 h / tissue uptake at 0.5 h: 0.5 h post-injection; for tissue uptake dose at 4 h / tissue uptake at 4 h: 4 h post-injection; for tissue uptake dose at 24 h / tissue uptake at 24 h: 24 h post-injection
Protocol: All the animal studies were conducted in compliance with Institutional Animal Care and Use Committee approval. The pharmacokinetics of ^99mTc-RGD-Lys-(Arg^11)CCMSH was determined in B16/F1 melanoma-bearing C57 female mice (Harlan, Indianapolis, Ind.). C57 mice were subcutaneously inoculated on the right flank with 1×10^6 B16/F1 cells. The weight of tumors reached approximately 0.2 g 10 days post cell inoculation. Each melanoma-bearing mouse was injected with 0.037 MBq of ^99mTc-RGD-Lys-(Arg^11)CCMSH via the tail vein. Groups of 5 mice were sacrificed at 0.5, 2, 4 and 24 h post-injection, and tumors and organs of interest were harvested, weighed and counted. Blood values were taken as 6.5% of the whole-body weight. The MC1 receptor specificity of the tumor uptake was determined at 2 h post-injection by co-injecting ^99mTc-RGD-Lys-(Arg^11)CCMSH with 10 μg (6.1 nmol) of unlabeled NDP-MSH, a linear α-MSH peptide analogue with picomolar affinity for the MC1 receptors present on murine melanoma cells. The co-injection of 3.5 μg (6.1 nmol) of RGD peptide was performed to determine the αvβ3 integrin specificity of the tumor uptake 2 h post-injection. Statistical analysis was performed using the Student's t-test for unpaired data.
All the animal studies were conducted in compliance with Institutional Animal Care and Use Committee approval. The pharmacokinetics of ^99mTc-RGD-Arg-(Arg^11)CCMSH was determined in B16/F1 melanoma-bearing C57 female mice (Harlan, Indianapolis, Ind.). C57 mice were subcutaneously inoculated on the right flank with 1×10^6 B16/F1 cells. The weight of tumors reached approximately 0.2 g 10 days post cell inoculation. Each melanoma-bearing mouse was injected with 0.037 MBq of ^99mTc-RGD-Arg-(Arg^11)CCMSH via the tail vein. Groups of 5 mice were sacrificed at 0.5, 2, 4 and 24 h post-injection, and tumors and organs of interest were harvested, weighed and counted. Blood values were taken as 6.5% of the whole-body weight. The MC1 receptor specificity of the tumor uptake was determined at 2 h post-injection by co-injecting ^99mTc-RGD-Arg-(Arg^11)CCMSH with 10 μg (6.1 nmol) of unlabeled NDP-MSH. The co-injection of 3.5 μg (6.1 nmol) of RGD peptide was performed to determine the αvβ3 integrin specificity of the tumor uptake at 2 h post-injection.

[1] = bladder, 0.037 MBq, read-out: Bladder, Percentage Injected Dose
[2] = blood, 0.037 MBq, read-out: Blood, Percentage Injected Dose/gram
[3] = bone, 0.037 MBq, read-out: Bone, Percentage Injected Dose/gram
[4] = brain, 0.037 MBq, read-out: Brain, Percentage Injected Dose/gram
[5] = heart, 0.037 MBq, read-out: Heart, Percentage Injected Dose/gram
[6] = intestines, 0.037 MBq, read-out: Intestines, Percentage Injected Dose
[7] = kidneys, 0.037 MBq, read-out: Kidneys, Percentage Injected Dose/gram
[8] = liver, 0.037 MBq, read-out: Liver, Percentage Injected Dose/gram
[9] = lung, 0.037 MBq, read-out: Lung, Percentage Injected Dose/gram
[10] = muscle, 0.037 MBq, read-out: Muscle, Percentage Injected Dose/gram

CC(C)[C@H](NC(=O)[C@@H]1CCCN1C(=O)[C@H](CCCNC(=N)N)NC(=O)[C@H](CS)NC(=O)[C@H](Cc1c[nH]c2ccccc12)NC(=O)[C@H](CCCNC(=N)N)NC(=O)[C@@H](Cc1ccccc1)NC(=O)[C@H](Cc1c[nH]cn1)NC(=O)[C@H](CCC(=O)O)NC(=O)[C@H](CS)NC(=O)[C@H](CS)NC(=O)[C@H](CCCCN)NC(=O)[C@@H]1CC(=O)N[C@@H](CCCNC(=N)N)C(=O)NCC(=O)N[C@@H](CC(=O)O)C(=O)N[C@H](Cc2ccc(O)cc2)C(=O)N1)C(N)=O [^99mTc-RGD-Lys-(Arg^11)CCMSH, metal not drawn] (RGD[dY]DKCCEH[dF]RWCRPV-NH2; lactam N-5)
dose excreted at 2 h (bladder (urine), 0.037 MBq, 2 h post-injection, read-out: Bladder, Percentage Injected Dose (cleared through the urinary system)): 62.3 ± 8.16% | tissue uptake dose at 0.5 h [1]: 46.9 ± 2.54 %ID | tissue uptake dose at 4 h [1]: 68.7 ± 2.06 %ID | tissue uptake dose at 24 h [1]: 78.2 ± 5.29 %ID | tissue uptake dose at 2 h (bladder, 2 h post-injection, NDP blockade (10 μg NDP-MSH co-injected), read-out: Bladder, Percentage Injected Dose): 75.9 ± 1.75 %ID | tissue uptake dose at 2 h (bladder, 2 h post-injection, RGD blockade (3.5 μg RGD co-injected), read-out: Bladder, Percentage Injected Dose): 75.1 ± 3.69 %ID | tissue uptake at 0.5 h [2]: 3.18 ± 0.51 %ID/g | tissue uptake at 2 h (blood, 0.037 MBq, 2 h post-injection, read-out: Blood, Percentage Injected Dose/gram): 0.96 ± 0.87 %ID/g | tissue uptake at 4 h [2]: 0.5 ± 0.27 %ID/g | tissue uptake at 24 h [2]: 0.11 ± 0.07 %ID/g | tissue uptake at 2 h (blood, 2 h post-injection, NDP blockade (10 μg NDP-MSH co-injected), read-out: Blood, Percentage Injected Dose/gram): 0.32 ± 0.34 %ID/g | tissue uptake at 2 h (blood, 2 h post-injection, RGD blockade (3.5 μg RGD co-injected), read-out: Blood, Percentage Injected Dose/gram): 0.53 ± 0.17 %ID/g | tissue uptake at 0.5 h [3]: 1.53 ± 0.75 %ID/g | tissue uptake at 2 h (bone, 0.037 MBq, 2 h post-injection, read-out: Bone, Percentage Injected Dose/gram): 1.05 ± 0.31 %ID/g | tissue uptake at 4 h [3]: 0.98 ± 0.67 %ID/g | tissue uptake at 24 h [3]: 0.71 ± 0.39 %ID/g | tissue uptake at 2 h (bone, 2 h post-injection, NDP blockade (10 μg NDP-MSH co-injected), read-out: Bone, Percentage Injected Dose/gram): 0.78 ± 0.65 %ID/g | tissue uptake at 2 h (bone, 2 h post-injection, RGD blockade (3.5 μg RGD co-injected), read-out: Bone, Percentage Injected Dose/gram): 0.37 ± 0.42 %ID/g | tissue uptake at 0.5 h [4]: 0.13 ± 0.03 %ID/g | tissue uptake at 2 h (brain, 0.037 MBq, 2 h post-injection, read-out: Brain, Percentage Injected Dose/gram): 0.12 ± 0.03 %ID/g | tissue uptake at 4 h [4]: 0.07 ± 0.04 %ID/g | tissue uptake at 24 h [4]: 0.06 ± 0.01 %ID/g | tissue uptake at 2 h (brain, 2 h post-injection, NDP blockade (10 μg NDP-MSH co-injected), read-out: Brain, Percentage Injected Dose/gram): 0.06 ± 0.02 %ID/g | tissue uptake at 2 h (brain, 2 h post-injection, RGD blockade (3.5 μg RGD co-injected), read-out: Brain, Percentage Injected Dose/gram): 0.03 ± 0.01 %ID/g | tissue uptake at 0.5 h [5]: 2.1 ± 0.41 %ID/g | tissue uptake at 2 h (heart, 0.037 MBq, 2 h post-injection, read-out: Heart, Percentage Injected Dose/gram): 0.85 ± 0.16 %ID/g | tissue uptake at 4 h [5]: 0.62 ± 0.31 %ID/g | tissue uptake at 24 h [5]: 0.39 ± 0.14 %ID/g | tissue uptake at 2 h (heart, with RGD peptide, 3.5 μg (6.1 nmol) co-injected, 2 h post-injection, RGD blockade (3.5 μg RGD co-injected), read-out: Heart, Percentage Injected Dose/gram): 0.37 ± 0.23 %ID/g | tissue uptake at 2 h (heart, with unlabeled NDP-MSH, 10 μg (6.1 nmol) co-injected, 2 h post-injection, NDP blockade (10 μg NDP-MSH co-injected), read-out: Heart, Percentage Injected Dose/gram): 0.47 ± 0.18 %ID/g | tissue uptake dose at 0.5 h [6]: 3.27 ± 0.13 %ID | tissue uptake dose at 2 h (intestines, 0.037 MBq, 2 h post-injection, read-out: Intestines, Percentage Injected Dose): 3.14 ± 1.2 %ID | tissue uptake dose at 4 h [6]: 2.95 ± 0.62 %ID | tissue uptake dose at 24 h [6]: 1.13 ± 0.18 %ID | tissue uptake dose at 2 h (intestines, 2 h post-injection, NDP blockade (10 μg NDP-MSH co-injected), read-out: Intestines, Percentage Injected Dose): 1.97 ± 0.17 %ID | tissue uptake dose at 2 h (intestines, 2 h post-injection, RGD blockade (3.5 μg RGD co-injected), read-out: Intestines, Percentage Injected Dose): 1.88 ± 0.16 %ID | tissue uptake at 0.5 h [7]: 69.4 ± 5.37 %ID/g | tissue uptake at 2 h (kidneys, 0.037 MBq, 2 h post-injection, read-out: Kidneys, Percentage Injected Dose/gram): 67.1 ± 8.79 %ID/g | tissue uptake at 4 h [7]: 68.3 ± 14.3 %ID/g | tissue uptake at 24 h [7]: 40.3 ± 10.8 %ID/g | tissue uptake at 2 h (kidneys, 2 h post-injection, NDP blockade (10 μg NDP-MSH co-injected), read-out: Kidneys, Percentage Injected Dose/gram): 59.5 ± 9.98 %ID/g | tissue uptake at 2 h (kidneys, 2 h post-injection, RGD blockade (3.5 μg RGD co-injected), read-out: Kidneys, Percentage Injected Dose/gram): 54.2 ± 15.1 %ID/g | tissue uptake at 0.5 h [8]: 4.02 ± 0.42 %ID/g | tissue uptake at 2 h (liver, 0.037 MBq, 2 h post-injection, read-out: Liver, Percentage Injected Dose/gram): 3.17 ± 1.43 %ID/g | tissue uptake at 4 h [8]: 2.91 ± 0.8 %ID/g | tissue uptake at 24 h [8]: 1.73 ± 0.33 %ID/g | tissue uptake at 2 h (liver, 2 h post-injection, NDP blockade (10 μg NDP-MSH co-injected), read-out: Liver, Percentage Injected Dose/gram): 2.89 ± 0.25 %ID/g | tissue uptake at 2 h (liver, 2 h post-injection, RGD blockade (3.5 μg RGD co-injected), read-out: Liver, Percentage Injected Dose/gram): 2.27 ± 0.23 %ID/g | tissue uptake at 0.5 h [9]: 5.31 ± 0.53 %ID/g | tissue uptake at 2 h (lung, 0.037 MBq, 2 h post-injection, read-out: Lung, Percentage Injected Dose/gram): 1.26 ± 0.32 %ID/g | tissue uptake at 4 h [9]: 1.07 ± 0.42 %ID/g | tissue uptake at 24 h [9]: 0.94 ± 0.45 %ID/g | tissue uptake at 2 h (lung, 2 h post-injection, NDP blockade (10 μg NDP-MSH co-injected), read-out: Lung, Percentage Injected Dose/gram): 1.31 ± 0.47 %ID/g | tissue uptake at 2 h (lung, 2 h post-injection, RGD blockade (3.5 μg RGD co-injected), read-out: Lung, Percentage Injected Dose/gram): 1.12 ± 0.1 %ID/g | tissue uptake at 0.5 h [10]: 0.38 ± 0.17 %ID/g | tissue uptake at 2 h (muscle, 0.037 MBq, 2 h post-injection, read-out: Muscle, Percentage Injected Dose/gram): 0.34 ± 0.29 %ID/g | tissue uptake at 4 h [10]: 0.13 ± 0.07 %ID/g | tissue uptake at 24 h [10]: 0.23 ± 0.19 %ID/g | tissue uptake at 2 h (muscle, 2 h post-injection, NDP blockade (10 μg NDP-MSH co-injected), read-out: Muscle, Percentage Injected Dose/gram): 0.21 ± 0.12 %ID/g | tissue uptake at 2 h (muscle, 2 h post-injection, RGD blockade (3.5 μg RGD co-injected), read-out: Muscle, Percentage Injected Dose/gram): 0.15 ± 0.06 %ID/g
